Results reported in patent publication US20060069036A1, “Methods of treatment of inflammation using glutathiones” (priority 2004, published 2006).

Columns and labels:
psoriasis lesions = system: psoriasis lesions
Description: As of the filing of this application, a preliminary program of clinical testing has been conducted. […] Patients instructed to apply the product twice daily to the affected areas.

GSH levels = conditions: oral administration, cited from earlier work
[1] = patients with psoriasis symptoms, topical cream 45 mg/ml GSH in phospholipid carrier, twice daily

Row | SMILES | adverse side effects (psoriasis lesions; clinical studies to date, topical application) | response of patient lesions to treatment (psoriasis lesions; patients with psoriasis symptoms, topical cream 45 mg/ml GSH in phospholipid carrier, applied twice daily to affected areas) | elasticity and supple feeling of the skin (psoriasis lesions; [1]) | inflammation, irritation, and erythema of the skin (psoriasis lesions; [1]) | time after first application to significant improvement (in some cases clearing) of lesions (psoriasis lesions; [1]) | effect on GSH levels (GSH levels; HIV patients) | safety and tolerability (GSH levels)
1 | N[C@@H](CCC(=O)N[C@@H](CS)C(=O)NCC(=O)O)C(=O)O [reduced glutathione (GSH), N-L-gamma-glutamyl-cysteinyl glycine] | no adverse side effects | significantly improved | returned | decreased | ≤ 24 h | – | –
2 | O=C(O)CCCCC1CCSS1 (stereo not drawn) [alpha-lipoic acid, Alpha-lipoic acid] | – | – | – | – | – | raises GSH levels | extremely safe and well tolerated
